From US20180243273A1, “Composition for Intravesical Administration for Treating Bladder Pain” (priority 2017, published 2018)

Key:
[1] = Solubility and stability of API in dependence of surfactant concentration; assay type: physicochemical; details: phosphate buffer and 0.50% vitamin E TPGS, compared with other buffer/surfactant combinations at 0.25% and 0.5%
Protocol: In order to prevent too high concentrations of surfactants, which can cause irritant or toxic effects after local administration in the bladder, lower concentrations were evaluated. New batches of API in citrate and phosphate buffer were manufactured. SLS and vitamin E TPGS were chosen for citrate buffer and Labrasol® and vitamin E TPGS for phosphate buffer in a concentration of 0.5% and 0.25%, each. The compositions were stirred overnight prior to filtration and analysis.

[2] = Preliminary stability study of API intravesical solution; assay type: physicochemical
Protocol: Two dose strengths were specified: 40 μg/mL and 150 μg/mL API. These concentrations were defined in order to stay below 80% of the saturated solubility values obtained during previous experiments. To enable dissolution of the API, 0.5 wt.-% and 2 wt.-% vitamin E TPGS were used for 40 μg/mL and 150 μg/mL API, respectively (24 h stirring). The compositions were treated with nitrogen and stored at 5° C., 25° C. and 40° C.

[3] = vitamin E TPGS 0.5%, API 40 μg/mL, Asc. 1%, 6° C., 1 m
[4] = vitamin E TPGS 0.5%, API 40 μg/mL, Asc. 1%, 6° C., 2 w
[5] = vitamin E TPGS 0.5%, API 40 μg/mL, Asc. 1%, t = 0
[6] = vitamin E TPGS 0.5%, API 40 μg/mL, no Asc., treated with nitrogen, 6° C., 1 m
[7] = vitamin E TPGS 0.5%, API 40 μg/mL, no Asc., treated with nitrogen, 6° C., 2 w
[8] = vitamin E TPGS 0.5%, API 40 μg/mL, no Asc., treated with nitrogen, 6° C., 3 m
[9] = vitamin E TPGS 0.5%, API 40 μg/mL, no Asc., treated with nitrogen, 25° C., 1 m
[10] = vitamin E TPGS 0.5%, API 40 μg/mL, no Asc., treated with nitrogen, 25° C., 2 w
[11] = vitamin E TPGS 0.5%, API 40 μg/mL, no Asc., treated with nitrogen, 25° C., 3 m
[12] = vitamin E TPGS 0.5%, API 40 μg/mL, no Asc., treated with nitrogen, 40° C., 1 m
[13] = vitamin E TPGS 0.5%, API 40 μg/mL, no Asc., treated with nitrogen, 40° C., 2 w
[14] = vitamin E TPGS 0.5%, API 40 μg/mL, no Asc., treated with nitrogen, 40° C., 3 m
[15] = vitamin E TPGS 0.5%, API 40 μg/mL, no Asc., treated with nitrogen, t = 0
[16] = vitamin E TPGS 2%, API 150 μg/mL, Asc. 1%, 6° C., 1 m
[17] = vitamin E TPGS 2%, API 150 μg/mL, Asc. 1%, 6° C., 2 w
[18] = vitamin E TPGS 2%, API 150 μg/mL, Asc. 1%, t = 0
[19] = vitamin E TPGS 2%, API 150 μg/mL, no Asc., treated with nitrogen, 6° C., 1 m
[20] = vitamin E TPGS 2%, API 150 μg/mL, no Asc., treated with nitrogen, 6° C., 2 w
[21] = vitamin E TPGS 2%, API 150 μg/mL, no Asc., treated with nitrogen, 6° C., 3 m
[22] = vitamin E TPGS 2%, API 150 μg/mL, no Asc., treated with nitrogen, 25° C., 1 m
[23] = vitamin E TPGS 2%, API 150 μg/mL, no Asc., treated with nitrogen, 25° C., 2 w

CN(C)[C@]1(c2cccc(F)c2)CC[C@]2(CC1)c1[nH]c3ccccc3c1CCN2C(=O)/C=C/c1ccccc1 [API, cis-(E)-4-(3-fluorophenyl)-2′,3′,4′,9′-tetrahydro-N,N-dimethyl-2′-(1-oxo-3-phenyl-2-propenyl)-spiro[cyclohexane-1,1′[1H]-pyrido[3,4-b]indol]-4-amine]
assay and impurities [1]: highest assay and lowest impurities values | assay values over storage ([2]; all investigated compositions, 3 months, stored at 6° C. or 25° C.): remained stable | assay over storage ([2]; stored at 40° C.): decreased considerably | Assay [2, 3]: 70.25 % L.S. | Impurities [2, 3]: 1.00 % (a/a) | Assay [2, 4]: 70.56 % L.S. | Impurities [2, 4]: 0.57 % (a/a) | Assay [2, 5]: 70.39 % L.S. | Impurities [2, 5]: 0.57 % (a/a) | Assay [2, 6]: 54.62 % L.S. | Impurities [2, 6]: 0.58 % (a/a) | Assay [2, 7]: 54.81 % L.S. | Impurities [2, 7]: 0.08 % (a/a) | Assay [2, 8]: 55.05 % L.S. | Impurities [2, 8]: 0.69 % (a/a) | Assay [2, 9]: 54.98 % L.S. | Impurities [2, 9]: 0.86 % (a/a) | Assay [2, 10]: 54.71 % L.S. | Impurities [2, 10]: 0.97 % (a/a) | Assay [2, 11]: 54.50 % L.S. | Impurities [2, 11]: 1.42 % (a/a) | Assay [2, 12]: 54.06 % L.S. | Impurities [2, 12]: 1.78 % (a/a) | Assay [2, 13]: 54.61 % L.S. | Impurities [2, 13]: 1.04 % (a/a) | Assay [2, 14]: 52.07 % L.S. | Impurities [2, 14]: 4.94 % (a/a) | Assay [2, 15]: 54.58 % L.S. | Impurities [2, 15]: 0.55 % (a/a) | Assay [2, 16]: 67.68 % L.S. | Impurities [2, 16]: 1.16 % (a/a) | Assay [2, 17]: 68.11 % L.S. | Impurities [2, 17]: 0.68 % (a/a) | Assay [2, 18]: 68.21 % L.S. | Impurities [2, 18]: 0.68 % (a/a) | Assay [2, 19]: 61.93 % L.S. | Impurities [2, 19]: 0.72 % (a/a) | Assay [2, 20]: 62.29 % L.S. | Impurities [2, 20]: 0.49 % (a/a) | Assay [2, 21]: 62.05 % L.S. | Impurities [2, 21]: 0.72 % (a/a) | Assay [2, 22]: 62.07 % L.S. | Impurities [2, 22]: 1.00 % (a/a) | Assay [2, 23]: 61.97 % L.S. | Impurities [2, 23]: 0.68 % (a/a)
